ChEMBL document CHEMBL1142846, “Synthesis and cytotoxic activity of platinum complex immobilized by branched polyethylene glycol” (Bioorg Med Chem Lett, 2005)

Assay: Inhibition concentration against C6 […] cells by the 3-(4,5-dimethylthiazol-2-yl)-2,5-diphenyltetrazoliumbromide (MTT) method
Assay type: functional, cell-based

## CISPLATIN
  IC50: 5.27 µM
